Columns and labels:
[1] = tested on: isolated rat bladder strips; experiment: Inhibition of contractions in isolated rat bladder strips; settings: 15 mM KCl-enhanced contractile activity; for inhibition at 30 µM: read-out: % Inhibition @ 30 μM (maximum percentage inhibition of contractile activity); for IC50: 0.5 h, 30 minute challenge
From the text: Sprague-Dawley rats (150–200 g) were rendered unconscious by CO2 asphyxiation and then euthanized by cervical dislocation. The bladder was removed into warm (37 deg.C.) physiological salt solution (PSS) of the following composition (mM): NaCl, 118.4; KCl, 4.7; CaCl2, 2.5; […]; NaHCO3, 24.9; KH2PO4, 1.2; glucose, 11.1; EDTA, 0.023; gassed with 95% O2; […]; pH 7.4. The bladder was opened and then cut into strips 1–2 mm in width and 7–10 mm in length. The strips are subsequently suspended in a 10 mL tissue bath under an initial resting tension of 1.5 g. The strips were held in place by two surgical clips one of which is attached to a fixed hook while the other is attached to an isometric force transducer. […] The carbachol was then washed out and the tissue allowed to relax to its resting level of activity. Following a further 30 minute period of recovery an additional 15 mM KCl were introduced into the tissue bath. […] Following stabilization of this enhanced level of contractile activity, incremental increases in the concentration of test compound or vehicle were introduced into the tissue bath. Contractile activity was measured for each compound or vehicle concentration during the last minute of a 30 minute challenge.
The isometric force developed by the bladder strips was measured using a […] to elicit 50% inhibition of pre-drug contractile activity (IC50 concentration) and was calculated from this concentration-response curve.

| Structure (SMILES) | inhibition at 30 µM [1] [%] | melting point [°C] | IC50 [1] [µM] |
| --- | --- | --- | --- |
| CC(N1C(=O)C(=O)N(c2ccc(Cl)cc2)C1=S)C(C)(C)C (stereo not shown) [Example 12, 1-(4-Chloro-phenyl)-2-thioxo-3-(1,2,2-trimethyl-propyl)-imidazolidine-4,5-dione] | 24.3 | 198.8 to 199.5 | – |
| CC(N1C(=O)C(=O)N(c2ccc(C#N)cc2)C1=S)C(C)(C)C (racemic) [Example 1, 4-[4,5-Dioxo-2-thioxo-3-(1,2,2-trimethyl-propyl)-imidazolidin-1-yl]-benzonitrile] | – | 219.6 to 219.9 | 3.3 ± 0.08 |
| CC(C)(C)CN1C(=O)C(=O)N(c2ccc(F)cc2)C1=S [Example 14, 1-(2,2-Dimethyl-propyl)-3-(4-fluoro-phenyl)-2-thioxo-imidazolidine-4,5-dione] | 15 | 165.2 to 166.3 | – |
| CC(N1C(=O)C(=O)N(c2cccc(C#N)c2)C1=S)C(C)(C)C (stereo not shown) [Example 7, 3-[4,5-Dioxo-2-thioxo-3-(1,2,2-trimethyl-propyl)-imidazolidin-1-yl]-benzonitrile] | 29.2 | 168.1 to 168.7 | – |
| C[C@@H](N1C(=O)C(=O)N(c2ccc(C#N)cc2)C1=S)C(C)(C)C [Example 6, 4-[4,5-Dioxo-2-thioxo-3-((1R)-1,2,2-trimethyl-propyl)-imidazolidin-1-yl]-benzonitrile] | – | 197.6 to 197.8 | 4.2 ± 1.4 |
| CC(C)(C)N1C(=O)C(=O)N(c2ccc(C#N)cc2)C1=S [Example 4, 4-(3-tert-Butyl-4,5-dioxo-2-thioxo-imidazolidin-1-yl)-benzonitrile] | – | 200.4 to 201.3 | 30 ± 5 |
| CC(N1C(=O)C(=O)N(c2ccc(Br)cc2)C1=S)C(C)(C)C (stereo not shown) [Example 8, 1-(4-Bromo-phenyl)-2-thioxo-3-(1,2,2-trimethyl-propyl)-imidazolidine-4,5-dione] | 22.4 | 207.1 to 207.9 | 27.2 |
| CCc1cc(C#N)ccc1N1C(=O)C(=O)N(C(C)(C)CC)C1=S [Example 5, 4-[3-(1,1-Dimethyl-propyl)-4,5-dioxo-2-thioxo-imidazolidin-1-yl]-3-ethyl-benzonitrile] | – | 172.8 to 173.3 | 28.9 ± 2.6 |
| CCC(C)(C)N1C(=O)C(=O)N(c2ccc(C#N)cc2)C1=S [Example 3, 4-[3-(1,1-Dimethyl-propyl)-4,5-dioxo-2-thioxo-imidazolidin-1-yl]-benzonitrile] | – | 173.1 to 174.3 | 25.7 ± 3.7 |
| CC(C)(C)CN1C(=O)C(=O)N(c2cccnc2)C1=S [Example 15, 1-(2,2-Dimethyl-propyl)-3-pyridin-3-yl-2-thioxo-imidazolidine-4,5-dione] | – | 111.4 to 112.8 | 3.6 ± 0.8 |
| CN(C)c1ccc(N2C(=O)C(=O)N(CC(C)(C)C)C2=S)cc1.Cl [Example 9, 1-(4-Dimethylamino-phenyl)-3-(2,2-dimethyl-propyl)-2-thioxo-imidazolidine-4,5-dione Hydrochloride] | 33.2 | 244 to 246 | – |
| CC(C)(C)CN1C(=O)C(=O)N(c2ccc(C#N)cc2)C1=S [Example 2, 4-[3-(2,2-Dimethyl-propyl)-4,5-dioxo-2-thioxo-imidazolidin-1-yl]-benzonitrile] | – | 128 to 129 | 3.4 ± 0.8 |
| CC(N1C(=O)C(=O)N(c2ccc(C(C)(C)C)cc2)C1=S)C(C)(C)C (stereo not shown) [Example 13, 1-(4-tert-Butyl-phenyl)-2-thioxo-3-(1,2,2-trimethyl-propyl)-imidazolidine-4,5-dione] | 18.3 | 208.9 to 209.5 | – |
| CC(N1C(=O)C(=O)N(c2ccc(F)cc2F)C1=S)C(C)(C)C (stereo not shown) [Example 10, 1-(2,4-Difluoro-phenyl)-2-thioxo-3-(1,2,2-trimethyl-propyl)-imidazolidine-4,5-dione] | 23.1 | 155.2 to 156 | – |
| CC(C)(C)CN1C(=O)C(=O)N(c2ccc(F)cc2F)C1=S [Example 11, 1-(2,4-Difluoro-phenyl)-3-(2,2-dimethyl-propyl)-2-thioxo-imidazolidine-4,5-dione] | 30.6 | 156.2 to 156.9 | – |
